Data reported in US20230116113A1, “USE OF COMPOUNDS THAT ARE ABLE TO CROSS-LINK THE EXTRACELLULAR MATRIX FOR PREVENTING OR INHIBITING THE MIGRATION OF CANCER CELLS” (CAMBRIDGE ENTERPRISE LIMITED, priority 2020, published 2023).
“Also recorded” adds a separate entry of the source.

Assays:
U87 GBM cells [1] = assay: Migration and proliferation of cells from U87 tumour spheroids in 3D hyaluronic acid-serum model brain ECM; format: cell-based; details: 5, 10 and 20 mM trientine mixed into 2 wt % HA-serum model ECM; days 1, 3, 6, 10
Source text: We first established a 3D extracellular matrix (ECM) model for brain consisting of hyaluronic acid mixed with serum proteins to support GBM cell metabolism. We then used tumour spheroids, cultured from U87 GBM cell line cells, as 3D tumour models that we implanted into the hyaluronic acid-serum model brain ECM.
We fabricated hyaluronic acid-serum model brain ECMs containing 2 wt %, 3.5 wt % and 5 wt % hyaluronic acid to represent low, normal and high hyaluronic acid concentrations/levels of molecular entanglement with respect to brain extracellular matrix. The low hyaluronic acid concentration model ECMs can be expected to mimic an in vivo situation where there is substantial hyaluronic acid degradation and the high hyaluronic acid concentration was set to exceed the average hyaluronic acid concentration in brain ECM by 50%.
The different concentrations of hyaluronic acid-serum for model ECMs were prepared by mixing hyaluronic acid with MEM complete media and foetal calf serum. […]
(§1) Migration of cells from the spheroids, cell viability and the vertical position of the spheroid in the well were recorded on days 4, 7 and 16 using bright field, epifluorescence or confocal microscopy, before the samples were returned to the incubator to continue the experiment.

U87 cells = details: different trientine concentrations in phosphate-buffered saline
Protocol: FIG. 6: A. Optical images showing the effect of crosslinking 3D model brain ECM ionically with 5, 10 and 20 mM trientine on the migration of glioblastoma U87 cells from tumour spheroids compared to controls with no trientine crosslinking. […] B. Quantification of the extent of cancer cell migration in the 3D model brain ECM with addition of different trientine concentrations. C.

U87 GBM cells [2] = system: U87 GBM cells
Protocol: Calcein AM (acetoxymethyl), a non-fluorescent ester derivative of the fluorescent calcein dye, was used to determine the viability and integrity of spheroids. Spheroids were soaked in 1 uM calcein-AM in live cell imaging buffer for 45 minutes in a humidified 5% CO2 incubator. After incubation, the calcein-AM solution was removed, spheroids were washed three times with PBS and transferred with 50 μl of media to the top of hyaluronic acid-serum gels in chamber slide wells prepared as above. In controls, spheroids were placed into the wells with 300 μl of MEM complete supplemented medium.
as §1

[3] = system: K7M2 mouse osteosarcoma cell line; assay: Invasion of K7M2 osteosarcoma tumour spheroids into 3D 1.5 mg/ml collagen-medium model ECM; format: cell-based; details: monitored for 14 days
Protocol: Bone extracellular matrix consists primarily of calcified collagen type I. Calcification is invariably disrupted around metastasizing osteosarcoma tumours, allowing tumour cells to migrate through the extracellular matrix. Thus, we chose to model the bone/osteosarcoma extracellular matrix with a 3D 1.5 mg/ml collagen gel. This concentration of collagen gel promoted invasion by the K7M2 mouse osteosarcoma cell line (FIG. 9).
Collagen gels (1.5 mg/ml) in DMEM complete medium as model bone extracellular matrix was prepared from a stock 5 wt % collagen gel (IBIDI, Germany). K7M2 cells were cultured in DMEM complete medium supplemented with 10% foetal calf serum, antibiotics, and pyruvate. The cultures were maintained in T-75 cm^2 culture flasks and incubated at 37° C. and 5% CO2 in a humidified incubator. At 70% confluence, cells were detached from the surface of the flasks after incubating for 2 min at room temperature with 4 ml of trypsin-EDTA. The cell suspension was then centrifuged at 1400 rpm for 5 min at room temperature to pellet the cells. […]
Cell invasion was monitored for 14 days (FIG. 10). […]

[4] = cited from earlier work

With `NCCNCCNCCN` [trientine] the “cell migration from U87 tumour spheroids” value (U87 GBM cells [1]) was “inhibited in a trientine-concentration dependent manner; also recorded: clearly inhibited” and the “toxicity to U87 cells (live/dead cell analysis)” value (U87 cells) was “non-toxic to U87 cells”.
In the case of `Cc1cc2nc3c(=O)[nH]c(=O)nc-3n(C[C@H](O)[C@H](O)[C@H](O)CO)c2cc1C` [riboflavin], the “cell metabolic activity (calcein-AM staining)” value (U87 GBM cells [2]) is reported as “remained metabolically active”.
In the case of `COC(=O)C1=CO[C@@H](O)[C@@H]2C(CO)=CC[C@H]12` [genipin], the “cell invasion of model collagen extracellular matrix” value ([3]; 0.05 wt % genipin in 1.5 mg/ml collagen gel) is listed as “only minimal invasion”, the “cell invasion of model collagen extracellular matrix” value ([3]; 0.3 wt % genipin in 1.5 mg/ml collagen gel) is listed as “no observable cell invasion” and the acute toxicity ([4]; literature statement) is listed as “low acute toxicity”. The LD50 ([4]; mouse, in vivo, iv) was 153 mg/kg.
